# In patent US20250152651A1, “COMPOSITIONS AND METHODS FOR EXTRACTING COMPOUNDS” (Unicity Properties, Inc., priority 2023, published 2025):
# “And” between values parts separate entries of the source, which are not always exact repeats. Equal values may be shown once.
# Target: α-glucosidase
# Test: α-glucosidase inhibitory activity assay
# Assay type: biochemical
# Settings: alpha-glucosidase 1 U/ml, P-NPG substrate, 37° C., pH 6.8
# Method: An assay to measure α-glucosidase inhibitory activity of extract and fractions was carried out according to the standard method with minor modification. In a 96-well plate, reaction mixture containing 50 μl phosphate buffer (100 mM, pH=6. 8), 10 μl alpha-glucosidase (1 U/ml), and 20 μl of varying concentrations of extract and fractions (0.1, 0.2, 0.3, 0.4, and 0.5 mg/ml) was preincubated at 37° C. for 15 min. Then, 20 μl P-NPG (5 mM) were added as a substrate and incubated further at 37° C. for 20 min. The reaction was stopped by adding 50 μl Na2 CO3 (0.1 M). The absorbance of the released p-nitrophenol was measured at 405 nm using Multiplate Reader. Acarbose at various concentrations (0.1-0.5 mg/ml) was included as a standard. Without test substance was set up in parallel as a control and each experiment was performed in triplicates. The results were expressed as percentage inhibition, which was calculated using the formula,
# Inhibitory activity (%)=(1−As/Ac)×100 • where, As is the absorbance in the presence of test substance and Ac is the absorbance of control.
smiles,measurement,value
"O=C(O[C@@H]1Cc2c(O)cc(O)cc2O[C@@H]1c1cc(O)c(O)c(O)c1)c1cc(O)c(O)c(O)c1 [EGCG, epigallocatechin gallate]",IC50 values of α-glucosidase,138 µg/mL and 138.6 µg/mL
